Experimental data as given in US10464890B2, “PGAM1 inhibitors and methods related thereto” (Emory University, priority 2011, dated 2019).
“Also recorded” adds a separate entry of the source.

Tests used:
[1] = test system: diverse human cancer and leukemia cells; assay: Cell proliferation of diverse cancer and leukemia cells; type: cell-based; settings: diverse human cancer and leukemia cells incl. H1299, KG1a, 212LN; 72h
Protocol: (§1) For leukemia cell proliferation assay, 10×10^4 cells were seeded in non-tissue culture coated 6-well plate and incubated at 37° C. for indicated times. Cell numbers were counted by trypan blue exclusion under a microscope (×40) at indicated times and the percentage of cell proliferation was determined by comparing PGAM1 knockdown cells to pLKO.1 vector expressing cells. […] Cell viability was determined by counting drug-treated cells compared to DMSO-treated control cells with trypan blue exclusion under a microscope (×40) and by using CellTiter96Aqueous One solution proliferation kit (Promega). For adherent cell proliferation assay such as H1299 and MDA-MB231 cells, 5×10^4 cells were seeded in 6-well plate 24 h before the assay starts and were cultured at 37° C. 24 h after seeding, cells were treated with 5 μM Methyl-2PG and incubated at 37° C. for indicated times. Cell proliferation was determined by the increase in cell number indicated times after the treatment starts compared to that at the treatment starts for each cell line (T=0). Cell numbers were counted by trypan blue exclusion under a microscope (×40). […] Cell viability was determined by counting drug-treated cells compared to DMSO-treated control cells with trypan blue exclusion under a microscope (×40). […] Cell viability was determined by using CellTiter96Aqueous One solution proliferation kit (Promega).

[2] = test system: peripheral blood mononucleocytes and bone marrow CD34+ cells from healthy donors; assay: Cells from healthy human donors; type: cell-based
Excerpt: Approval of use of human specimens was given by the Institutional Review Board of Emory University School of Medicine. All clinical samples were obtained with informed consent with approval by the Emory University Institutional Review Board. Clinical information for the patients was obtained from the pathological files at Emory University Hospital under the guidelines and with approval from the Institutional Review Board of Emory University School of Medicine and according to the Health Insurance Portability and Accountability Act. Only samples from patients that were not previously treated with chemotherapy or radiation therapy were used. Mononuclear cells (MNCs) were isolated from peripheral blood and bone marrow samples from human leukemia patients or peripheral blood samples from healthy donors using lymphocyte separation medium (Cellgro).
Only samples from patients that were not previously treated with chemotherapy or radiation therapy were used. Mononuclear cells (MNCs) were isolated from peripheral blood and bone marrow samples from human leukemia patients or peripheral blood samples from healthy donors using lymphocyte separation medium (Cellgro).

[3] = test system: human dermal fibroblasts (HDF), human foreskin fibroblasts (HFF), HaCaT keratinocyte cells, melanocyte PIG1 cells; assay: Cell proliferation of normal human cells; type: cell-based
Protocol: as §1

PGAM1 = PGAM1 (Homo sapiens, UniProt P18669); assay: Thermal melt shift assay, PGAM1; type: binding; settings: increasing concentrations, […] to 80 μM
PGAM1, sequence (P18669 whole entry): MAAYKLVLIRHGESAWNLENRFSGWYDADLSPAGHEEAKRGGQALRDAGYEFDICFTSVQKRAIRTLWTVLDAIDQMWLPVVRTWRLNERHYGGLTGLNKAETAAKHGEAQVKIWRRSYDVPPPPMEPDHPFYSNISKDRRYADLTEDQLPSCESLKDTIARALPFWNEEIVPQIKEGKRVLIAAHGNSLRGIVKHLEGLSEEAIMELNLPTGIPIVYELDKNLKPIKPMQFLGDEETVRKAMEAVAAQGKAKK
Protocol: In brief, thermal shift assay of compound-protein interaction was performed in 384-well PCR plates with various compound concentrations and 200 μg/ml protein in a buffer solution (20 mM Tris-HCl, 100 mM NaCl, pH 7.4). SYPRO orange was used as a dye to monitor the fluorescence change at 610 nm. Small molecules were dissolved in DMSO and added to protein solution. Final DMSO concentration of solution is 1%. Dissociation constants (Kds) for protein-ligand interaction were calculated using the method as described.
The fluorescence intensity data were fitted to Eq. (1) to obtain ΔHu, ΔCpu, and Tm by nonlinear regression using the program Prism:
The thermal unfolding parameters for 6PGD and PGAM1 alone were determined from 4 control wells, each containing 0.2 mg/mL protein.

H1299 cells xenograft = assay: H1299 xenograft in nude mice; type: in vivo
[4] = 100 mg/kg/day i.p. for 21 days from 6 days post-injection, vs vehicle

## O=C1c2ccccc2C(=O)c2c1cc(S(=O)(=O)Nc1ccc(C(F)(F)F)cc1)c(O)c2O [PGMI-004A, N-(4-trifluoromethyl)-penyl-3,4-dihydroxy-9,10-dioxo-2-anthracenesulfonamide]
[1]
  cell proliferation: decreased cell proliferation
[2]; four healthy donors
  cell viability of CD34+ cells isolated from bone marrow samples: did not affect cell viability
[2]; two healthy human donors, 120 h
  cell viability of mononucleocytes in peripheral blood samples: no toxicity; also recorded: did not affect cell viability
[3]
  cell proliferation / non-specific toxicity in normal cells: does not affect cell proliferation; also recorded: minimal non-specific toxicity
PGAM1
  PGAM1 melting temperature (Tm): raises PGAM1 melting temperature (Tm) in a dose-dependent manner
H1299 cells xenograft; [4]
  tumor growth: significantly decreased
  tumor size: significantly decreased
H1299 cells xenograft; xenograft nude mice treated with PGMI-004A
  PGAM1 enzyme activity in resected tumors: effectively inhibits PGAM1 enzyme activity
